Data set [1] in a line: Tissue distribution and pharmacokinetics of single dose of radiolabelled 3H-CHP in mice (Study IPSS C053). The format is in vivo. Particulars: single dose 3H-CHP. From the text: Example 1: Tissue Distribution and Pharmacokinetic Study with CHP Study “Clinical Study in Mice on the Tissue Distribution and Pharmacokinetics of Single Dose of the Radiolabelled ^3H-CHP-Study No.: IPSS C053”—(FIG. 1). This Study has been Designed and Performed According to this Invention
1. Determination of ^3H-CHP distribution in 25 tissues, remaining carcass and whole blood over time.
2. Determination of pharmacokinetic parameters of CHP.
3. Comparison of intravenous (IV), and oral routes of administration.
^3H-CHP Labelling • CHP was labelled on the 4-prime position using tritium. • The scintillation counting technique detects the tritium atom. • Therefore the counting technique detects CHP and some metabolites which incorporate the tritium. […] They were selected using inclusion and exclusion criteria, and were therefore highly standardised.
Dosing Regimen • 48 animals were each administered 50 μCi ^3H-CHP at the start of the experiment. This was termed time zero (00:00 hrs). • 27 mice were dosed via the intravenous (IV) route. • 21 mice were dosed via the oral route. • Six (6) animals were not administered with CHP. They form two control groups of 3 mice each.
Data Collection • 3 mice were sacrificed following the SOP for anesthesia and according to the following time intervals
Sample Collection • From each sacrificed mouse, the following samples were taken: • Whole BloodEyes & Harderian GlandsKidneys & Adrenal GlandsAortaLiverLungSpleenUrinary BladderBone & Bone MarrowCaecumSmall IntestineLarge IntestineLymph Nodes (Mesenteric) Muscle, PancreasBrain & Pituitary GlandBrown FatSubcutaneous FatHeartThymousBoth TestesProstateSkinStomachThyroidSalivary GlandsRemaining CarcassUrine (collected if possible: in practise this was rare)
The remaining carcass sample consisted of the rest after removal of whole blood and the other tissues. Any material cleaned from other tissues listed above was also included. The collected remainings were homogenised before analysis.

Data set [2] is described as follows: Single ascending oral doses of CHP (Study 1001-68) and single IV dose (Study 0302-72): pharmacokinetics and safety in healthy volunteers. Format: in vivo, human. The source says: study title Safety, tolerability and pharmacokinetic profile of single ascending doses of oral cis-4-hydroxy-L-proline (CHP) in healthy volunteers Galmed study no. 1001-68-. Results FIGS. 3 and 4.
Study title: Single Dose Absolute Bioavailability (intravenous IV solution) and Safety Study of CHP in Healthy Volunteers-GALMED Study No: 0302-72. Results are in (FIGS. 5 and 6)
Six healthy volunteers (male, caucasian—18-45 years old) were recruited from the GCP-Galmed clinical centre. All healthy volunteers provided written informed consent prior to study participation. The study was approved by the independent Ethical Committee.
All volunteers were orally administered 2, 4, 6, 8, 10 and 12 grams of CHP with a wash out period of at least one week between doses of CHP.
The following blood and urine samples were collected for determination of the pharmacokinetics parameters of CHP and THP:
10 hours and immediately prior to administration of CHP (0 Hour), and at 0.25, 0.5, 1, 1.5, 2, 2.5, 3, 4, 5, 6, 12 and 24 hours after administration of CHP.
Urine was collected for the determination of the CHP and THP concentrations and the calculation of the elimination parameters of CHP and THP.
Six healthy volunteers (male, caucasian—18-45 years old) were recruited from the GCP-Galmed clinical centre. All healthy volunteers provided written informed consent prior to study participation. The study was approved by the independent Ethical Committee. Single doses of CHP were intravenously administered: 2.0 g, 4.0 g (2×2.0 g). Each dose level was administered to all healthy volunteers. There was a washout period of at least one week between doses.
The following safety parameters were determined at the pre- and post-study examinations: • 1. Vital signs • 2. Clinical laboratory: Blood chemistry, Haematology, Coagulation, Urinalysis • 3. Adverse events (Signs and Symptoms) have been recorded in each of the two treatment periods.

Setting [3] is: healthy subjects, after oral administration of CHP 2 g-12 g.

Broadly, the half-life is the time in which the quantity being followed falls by half. Usually MRT stands for the average time that molecules of a dose stay in the body. As usually defined, the Tmax is the time at which the peak concentration occurs. Consider `O=C(O)[C@@H]1C[C@H](O)CN1` [CHP, cis-4-hydroxy-L-proline], for which, in data set [1], the “Maximal concentration in the brain following oral administration in comparison to the intravenous application” value is recorded as “approximately 48%”. Besides, the “Crossing of the blood-brain barrier” value in data set [1] (concentration observed in brain & pituitary gland) is on record as “can cross the blood-brain barrier”. Besides, the “Vital parameters, clinical chemistry, haematological and urinalysis findings” value in data set [2] (CHP administered orally and intravenously to healthy volunteers (Examples 3 and 4)) is reported as “all within the normal range”. Further, in data set [2] (setting [3]), the “Oral clearance (average)” value came out at 199.72 mL/min and the “Volume of distribution (average)” value was found to be 63.94 L. The “Correlation of Cmax and AUC(0-∞) with dose” value in data set [2] (healthy subjects, oral CHP doses 2 g-12 g) is “dose linearity”. Further, in data set [2] (human, in vivo), the “Metabolism by the liver microsomal enzyme system” value was “isomerisation, hydroxylation and demethylation”. Further, the half-life in data set [2] (male, human, in vivo, healthy subjects, after oral administration of CHP 2 g-12 g, read-out: Elimination half life (average) (converted)) is 222 min. Besides, the MRT in data set [2] (male, human, in vivo, healthy subjects, after oral administration of CHP 2 g-12 g, read-out: Mean residence time (MRT) (average)) came out at 4.15 h. For the same molecule, the Tmax in data set [2] (male, human, healthy subjects, plasma, after oral administration of CHP 2 g-12 g) worked out at 1.24 h.

For the origin of these results see patent US10328051B2, “Proline or proline derivatives for the treatment of dementia” (priority 2014, dated 2019).
